Test results as given in patent US8268827B2, “Pyridazinone derivatives as PARP inhibitors” (Istituto di Ricerche di Biologia Molecolare P. Angeletti …, priority 2007, dated 2012).

Columns and labels:
[1] = target: T1, PARP-1 (Homo sapiens, UniProt P09874); experiment: PARP-1 TCA assay (inhibitory activity on human PARP-1); type: biochemical; details: human PARP-1, TCA assay
T1 construct: purchased Trevigen 4668-500-01
Procedure: Inhibitory Activity on Human PARP-1
The study was designed to determine the potency of compounds for inhibiting poly(ADP-ribosylation) by hPARP1 upon presentation of a nicked DNA (i.e. Activated Calf Thymus). The IC50 was determined in a TCA assay looking at the incorporation of [^3H]-NAD into the growing Poly-ADP-ribose (PAR) polymers and detection of the radioactivity incorporated in a polymer by scintillation counting.
A 96 wells polypropylene microplate was prepared with serial dilutions of compounds (10 point over a 0.1 nM-50 nM concentration range 5% DMSO, 5 uL) or 5% DMSO. The enzymatic reaction was conducted in the presence of 25 mM Tris-HCl pH8.0, 1 mM MgCl2, 50 mM KCl, 1 mM Spermine, 0.01% Nonidet P-40, 1 mM DTT, 1 ug/ml activated Calf Thymus DNA (Amersham Biosciences 27-4575) and 1 nM of human PARP-1 enzyme (Trevigen 4668-500-01). The reaction was initiated by adding 1 ug/ml Activated Calf Thymus DNA (Amersham Biosciences 27-4575), 0.4 ul (2.2×10^5DPM) of [^3H]-NAD (250uCi/ml, Perkin Elmer NET-443H) and 1.5 uM NAD (Sigma #N-1511) in a total reaction volume of 50 ul. After 2 hours incubation at room temperature, the reaction was stopped by the addition of TCA (50 uL, 20%) and NaPPi (20 mM) and incubated for 10 min over ice. The resulting precipitate was filtered on Unifilter GF/B microplate (Perkin Elmer) and washed four times with 2.5% TCA using Harvester Filtermate 196 (Perkin Elmer). After addition of 50 ul of Microscint 20 (Perkin Elmer) the amount of radioactivity incorporated into the PARP polymers was read for each well on Perkin Elmer Top Count. IC50 was calculated using 4P logistic fitting with ADA software based on the residual enzyme activity in the presence of increasing concentrations of compounds.

[2] = test system: BRCA-1 silenced HeLa cells (HeLa shBRCA1-GFP); experiment: Proliferation assay in BRCA-1 silenced HeLa cells; type: cell-based; details: Homo sapiens; BRCA-1 silenced HeLa cells; read-out: BRCA1- CC50
Method in brief: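 HeLa cells with lentiviral shRNA BRCA1 knockdown (>80%), compared with control-vector HeLa, seeded at 300 cells/well. Compound exposure lasted 168 h at 37° C. Viability was read as resazurin-to-resorufin fluorescence (ex 550/em 590 nm).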

[3] = test system: ischemia and reperfusion of the heart; details: rabbits, cited from earlier work

T1 sequence (P09874 whole entry): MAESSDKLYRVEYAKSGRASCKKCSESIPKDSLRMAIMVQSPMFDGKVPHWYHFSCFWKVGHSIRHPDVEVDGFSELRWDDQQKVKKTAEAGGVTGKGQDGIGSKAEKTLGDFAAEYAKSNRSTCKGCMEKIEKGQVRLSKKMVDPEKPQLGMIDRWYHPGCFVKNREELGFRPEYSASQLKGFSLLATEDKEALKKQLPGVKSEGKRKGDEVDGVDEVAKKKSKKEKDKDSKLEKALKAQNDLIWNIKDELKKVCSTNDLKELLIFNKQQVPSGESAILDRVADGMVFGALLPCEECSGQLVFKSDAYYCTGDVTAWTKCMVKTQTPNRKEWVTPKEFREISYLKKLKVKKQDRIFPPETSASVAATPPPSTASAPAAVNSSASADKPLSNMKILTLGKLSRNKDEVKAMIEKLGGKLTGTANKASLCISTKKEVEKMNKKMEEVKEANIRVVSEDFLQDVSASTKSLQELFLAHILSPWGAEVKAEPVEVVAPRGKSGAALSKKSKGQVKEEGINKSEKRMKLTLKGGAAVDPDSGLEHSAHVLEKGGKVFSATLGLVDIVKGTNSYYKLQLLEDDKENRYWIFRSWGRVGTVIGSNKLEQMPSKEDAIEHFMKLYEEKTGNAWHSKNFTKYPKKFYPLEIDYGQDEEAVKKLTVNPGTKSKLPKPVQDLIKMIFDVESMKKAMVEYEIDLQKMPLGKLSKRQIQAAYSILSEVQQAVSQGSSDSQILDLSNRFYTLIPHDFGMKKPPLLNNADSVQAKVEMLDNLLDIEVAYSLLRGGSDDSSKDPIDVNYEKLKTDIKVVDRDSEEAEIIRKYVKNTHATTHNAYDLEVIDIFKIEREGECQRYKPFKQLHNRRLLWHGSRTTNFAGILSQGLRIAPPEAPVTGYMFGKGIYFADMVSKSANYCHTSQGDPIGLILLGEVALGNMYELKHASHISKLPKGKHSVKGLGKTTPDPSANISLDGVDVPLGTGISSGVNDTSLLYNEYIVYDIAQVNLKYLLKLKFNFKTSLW

SMILES	IC50 [1]	CC50 [2]	reduction in infarct size ([3]; single injection 1 mg/kg)	reduction in infarct size in the heart ([3]; single injection 10 mg/kg, one minute before occlusion or one minute before reperfusion)
Oc1cccc2c(O)nccc12 [1,5-dihydroxyisoquinoline]			38-48%	
NC(=O)c1cccc(N)c1 [3-amino-benzamide]				32-42%
Cc1c(Cc2ccc(F)c(C(=O)N3CCN(C4CCCCC4)C(=O)C3)c2)n[nH]c(=O)c1C [drawing 29]	0.36 nM	7 nM		

Now from value to molecule, other results behind:

IC50 [1]	SMILES	CC50 [2]	reduction in infarct size ([3]; single injection 1 mg/kg)	reduction in infarct size in the heart ([3]; single injection 10 mg/kg, one minute before occlusion or one minute before reperfusion)
7.4 nM	Cc1c(Cc2ccc(F)c(C(=O)N3CCN(C4CCCCC4)CC3)c2)n[nH]c(=O)c1C	400 nM		
1 nM	Cc1c(Cc2ccc(F)c(C(=O)N3CCN(c4ccccc4)C(=O)C3)c2)n[nH]c(=O)c1C [drawing 25]	18 nM		
0.87 nM	Cc1c(Cc2ccc(F)c(C(=O)N3CCN(c4ccc(F)cc4)C(=O)C3)c2)n[nH]c(=O)c1C [drawing 26]	96 nM		
